Test results published in patent US20170190671A1, “BIS(ARYL)CATECHOL DERIVATIVES AS HERBICIDES” (E I DU PONT DE NEMOURS AND COMPANY, priority 2014, published 2017).

What was measured:
Assay in all cases: Test C postemergence
Format in all cases: in vivo
[1] = tested on: giant foxtail (Setaria faberii); details: scale 0 to 100
How it was run: (§1)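 After preemergence treatment of seeds in loam-sand soil or foliar treatment at the 1- to 4-leaf stage of plants in peat/vermiculite medium, pots were kept 13-15 days in the greenhouse. Each was then scored visually, 0 meaning no effect and 100 complete control.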

[2] = tested on: barnyardgrass (Echinochloa crus-galli)
How it was run: as §1

[3] = tested on: corn (Zea mays); details: scale 0 to 100
How it was run: as §1

[4] = tested on: velvetleaf (Abutilon theophrasti); details: scale 0 to 100
How it was run: as §1

[5] = tested on: johnsongrass (Sorghum halepense); details: scale 0 to 100
How it was run: as §1

[6] = tested on: soybean (Glycine max); details: scale 0 to 100
How it was run: as §1

[7] = tested on: winter wheat (Triticum aestivum); details: scale 0 to 100
How it was run: as §1

[8] = tested on: ragweed (common ragweed, Ambrosia elatior); details: scale 0 to 100
How it was run: as §1

[9] = tested on: morningglory (Ipomoea coccinea); details: scale 0 to 100
How it was run: as §1

[10] = tested on: Italian ryegrass (Lolium multiflorum); details: scale 0 to 100
How it was run: as §1

[11] = tested on: lambsquarters (Chenopodium album); details: scale 0 to 100
How it was run: as §1

[12] = tested on: oilseed rape (Brassica napus); details: scale 0 to 100
How it was run: as §1

[13] = tested on: blackgrass (Alopecurus myosuroides); details: scale 0 to 100
How it was run: as §1

[14] = tested on: large (Lg) crabgrass (Digitaria sanguinalis); details: scale 0 to 100
How it was run: as §1

## Fc1ccc(F)c(Oc2ncc(C(F)(F)F)cn2)c1Oc1ncc(Cl)cn1 [Compound 25]
[1]; 8 g ai/ha, postemergence
  Plant response rating, Foxtail, Giant: 0
[1]; Postemergence, 16 g ai/ha
  Plant response rating, Foxtail, Giant: 0
[1]; Postemergence, 31 g ai/ha
  Plant response rating, Foxtail, Giant: 0
[1]; Postemergence, 62 g ai/ha
  Plant response rating, Foxtail, Giant: 5
[2]; 8 g ai/ha, postemergence, scale 0 to 100 (0 no effect, 100 complete control)
  Plant response rating, Barnyardgrass: 5
[2]; Postemergence, 16 g ai/ha, scale 0 to 100
  Plant response rating, Barnyardgrass: 5
[2]; Postemergence, 31 g ai/ha, scale 0 to 100
  Plant response rating, Barnyardgrass: 5
[2]; Postemergence, 62 g ai/ha, scale 0 to 100
  Plant response rating, Barnyardgrass: 10
[3]; 8 g ai/ha, postemergence
  Plant response rating, Corn: 5
[3]; Postemergence, 16 g ai/ha
  Plant response rating, Corn: 5
[3]; Postemergence, 31 g ai/ha
  Plant response rating, Corn: 5
[3]; Postemergence, 62 g ai/ha
  Plant response rating, Corn: 5
[4]; 8 g ai/ha, postemergence
  Plant response rating, Velvetleaf: 30
[4]; Postemergence, 31 g ai/ha
  Plant response rating, Velvetleaf: 60
[4]; Postemergence, 62 g ai/ha
  Plant response rating, Velvetleaf: 30
[5]; 8 g ai/ha, postemergence
  Plant response rating, Johnsongrass: 0
[5]; Postemergence, 16 g ai/ha
  Plant response rating, Johnsongrass: 5
[5]; Postemergence, 31 g ai/ha
  Plant response rating, Johnsongrass: 5
[5]; Postemergence, 62 g ai/ha
  Plant response rating, Johnsongrass: 5
[6]; 8 g ai/ha, postemergence
  Plant response rating, Soybean: 30
[6]; Postemergence, 31 g ai/ha
  Plant response rating, Soybean: 50
[6]; Postemergence, 62 g ai/ha
  Plant response rating, Soybean: 45
[7]; 8 g ai/ha, postemergence
  Plant response rating, Wheat: 0
[7]; Postemergence, 31 g ai/ha
  Plant response rating, Wheat: 0
[7]; Postemergence, 62 g ai/ha
  Plant response rating, Wheat: 0
[8]; 8 g ai/ha, postemergence
  Plant response rating, Ragweed: 0
[8]; Postemergence, 31 g ai/ha
  Plant response rating, Ragweed: 10
[8]; Postemergence, 62 g ai/ha
  Plant response rating, Ragweed: 25
[9]; 8 g ai/ha, postemergence
  Plant response rating, Morningglory: 20
[9]; Postemergence, 31 g ai/ha
  Plant response rating, Morningglory: 10
[9]; Postemergence, 62 g ai/ha
  Plant response rating, Morningglory: 15
[10]; 8 g ai/ha, postemergence
  Plant response rating, Ryegrass, Italian: 0
[10]; Postemergence, 31 g ai/ha
  Plant response rating, Ryegrass, Italian: 5
[10]; Postemergence, 62 g ai/ha
  Plant response rating, Ryegrass, Italian: 5
[11]; 8 g ai/ha, postemergence
  Plant response rating, Lambsquarters: 60
[11]; Postemergence, 16 g ai/ha
  Plant response rating, Lambsquarters: 80
[11]; Postemergence, 31 g ai/ha
  Plant response rating, Lambsquarters: 80
[11]; Postemergence, 62 g ai/ha
  Plant response rating, Lambsquarters: 75
[12]; 8 g ai/ha, postemergence
  Plant response rating, Oilseed Rape: 30
[12]; Postemergence, 31 g ai/ha
  Plant response rating, Oilseed Rape: 50
[12]; Postemergence, 62 g ai/ha
  Plant response rating, Oilseed Rape: 45
[13]; 8 g ai/ha, postemergence
  Plant response rating, Blackgrass: 0
[13]; Postemergence, 16 g ai/ha
  Plant response rating, Blackgrass: 0
[13]; Postemergence, 31 g ai/ha
  Plant response rating, Blackgrass: 5
[13]; Postemergence, 62 g ai/ha
  Plant response rating, Blackgrass: 5
[14]; 8 g ai/ha, postemergence
  Plant response rating, Crabgrass, Large: 0
[14]; Postemergence, 16 g ai/ha
  Plant response rating, Crabgrass, Large: 0
[14]; Postemergence, 31 g ai/ha
  Plant response rating, Crabgrass, Large: 0
[14]; Postemergence, 62 g ai/ha
  Plant response rating, Crabgrass, Large: 5
